Experimental data from US9061009B2, “Mixed lineage kinases and metabolic disorders” (University of Massachusetts, priority 2007, dated 2015).

Experiments:
JNK = test: FFA-stimulated JNK activation in MEF (in vitro kinase assay with cJun / immunoblot); type: cell-based, mouse
Procedure: MEF and HEK293 cells (American Type Culture Collection) were cultured in Dulbecco's modified Eagle's medium (DMEM) supplemented with 10% fetal bovine serum (Invitrogen, Carlsbad, Calif.). […] Sodium salts of fatty acids (Sigma-Aldrich, St. Louis, Mo.) were dissolved in PBS and mixed with free fatty acid (FFA)-free BSA (Roche). Stearic acid (Sigma-Aldrich, St. Louis, Mo.) was dissolved in ethanol and added to serum-free DMEM supplemented with 2% FFA-free BSA. After 1 hour incubation in serum-free DMEM, cells were treated with 0.5 mM fatty acid/0.5% BSA for 1-16 hours at 37° C.
Protein extracts were prepared using lysis buffer [20 mM Tris™ buffer (pH 7.4), 1% Triton™ X-100 detergent, 10% glycerol, 137 mM NaCl, 2 mM EDTA, 25 mM β-glycerophosphate, 1 mM sodium orthovanadate, 1 mM phenylmethylsulfonyl fluoride, and 10 μg/mL of aprotinin and leupeptin]. Extracts (50 μg of protein) were examined by immunoblot analysis with antibodies obtained from Cell Signaling (MLK3, phosphoThr277, Ser281-MLK3, ERK, phospho-ERK, p38, phospho-p38, AKT, phosphoSer473-AKT, PKCα, PKCδ, phospho-T-loop-PKC, and phospho-JNK), Transduction Labs (PKCε), PharMingen (JNK), Sigma (α-Tubulin), and Upstate Biotechnology (IRS1, phosphoSer307-IRS1 and phospho-MKK7). JNK activity was measured in an in vitro kinase assay using [γ-^32P]ATP and cJun as substrates (Whitmarsh and Davis, 2001, Methods Enzymol., 332:319-336). […]

MLK3 = MLK3 T-loop (Thr-277, Ser-281) phosphorylation immunoblot in MEF; type: cell-based, mouse; details: MEF pretreated with phorbol ester, then FFA
Procedure: Wild-type, Mkk4^−/−, Mkk7^−/−, and Mkk4^−/− Mkk7^−/− MEF (Tournier et al., 2001, Genes Dev., 15:1419-1426) and wild-type and Mlk3^−/− MEF have been previously described (Brancho et al., 2005, Mol. Cell. Biol., 25:3670-3681). Wild-type and Pkcζ^−/− MEF have also been described (Leitges et al., 2001, Mol. Cell, 8:771-780). MEF and HEK293 cells (American Type Culture Collection) were cultured in Dulbecco's modified Eagle's medium (DMEM) supplemented with 10% fetal bovine serum (Invitrogen, Carlsbad, Calif.). HEK293 cells were transfected with Lipofectamine™ transfection reagent (Invitrogen, Carlsbad, Calif.). Sodium salts of fatty acids (Sigma-Aldrich, St. Louis, Mo.) were dissolved in PBS and mixed with free fatty acid (FFA)-free BSA (Roche). Stearic acid (Sigma-Aldrich, St. Louis, Mo.) was dissolved in ethanol and added to serum-free DMEM supplemented with 2% FFA-free BSA. […]
Protein extracts were prepared using lysis buffer [20 mM Tris™ buffer (pH 7.4), 1% Triton™ X-100 detergent, 10% glycerol, 137 mM NaCl, 2 mM EDTA, 25 mM β-glycerophosphate, 1 mM sodium orthovanadate, 1 mM phenylmethylsulfonyl fluoride, and 10 μg/mL of aprotinin and leupeptin]. […] JNK activity was measured in an in vitro kinase assay using [γ-^32P]ATP and cJun as substrates (Whitmarsh and Davis, 2001, Methods Enzymol., 332:319-336). […]

[1] = system: diacylglycerol-responsive PKC isoforms (α, δ, and ε); test: Down-regulation of PKC isoforms in MEF by phorbol ester; type: cell-based, mouse; details: 1 μM, 24 hours
Procedure: FIG. 7C is a set of nine gels depicting expression of PKCα, PKCδ, PKCε, MLK3, phospho-MLK3 (MLK3-P), JNK, and Tubulin and in vitro kinase activity (KA) on cJun (cJun-P) of PKGζ^−/− MEF pretreated with 1 μM TPA for 24 hours and then treated with 0.5 mM palmitate for 16 hours.
To test the requirement of PKC for FFA-stimulated MLK3 and JNK activation, the effect of PKC down-regulation was examined. In initial studies, siRNA was used to down-regulate the PKC isoforms expressed in MEF (PKCα, PKCδ, PKCε, and PKCζ). Down-regulation of individual PKC isoforms caused no change in FFA-induced MLK3 or JNK activation. […] Efficient simultaneous down-regulation of multiple PKC isoforms using siRNA was not obtained. An alternative approach was therefore used to obtain MEF lacking multiple PKC isoforms. […] The effect of pan-PKC deficiency was therefore examined by treating Pkcζ^−/− MEF with TPA (FIG. 7C).

[2] = Development of insulin resistance in mice fed a high fat diet; type: in vivo; details: male mice, high fat diet 16 weeks; s.c. 0.5 or 2.5 mg/kg twice per day; vs control treatment
Procedure: The effects of the MLK inhibitor CEP-1347 on development of insulin resistance in mice is determined. Male mice are fed a high fat diet ad libitum (Diet F3282, Bio-Serv, Frenchtown, N.J.) or a standard diet for 16 weeks, with each group administered CEP-1347 subcutaneously (s.c.) at a dose of 0.5 or 2.5 mg/kg or vehicle control, twice per day. Body mass is recorded weekly, and blood samples are collected from the tail vain after an overnight fast after 6, 12, and 16 weeks on the diet. Blood glucose concentrations are measured with a DEX® glucometer (Bayer, Tarrytown, N.Y.), and plasma insulin is measured by ELISA kit for rat insulin (Crystal Chem, Downers Grove, Ill.). Glucose tolerance tests are performed by i.p. administration of glucose (1.8 g/kg) and measurement of blood glucose at t=15, 30, 60, 90, and 120 minutes in 16-week-old mice. Insulin tolerance tests are done similarly except with the injection of human insulin (1 unit per kg; Lilly Research Laboratories, Indianapolis). Untreated animals fed the high fat diet display hyperinsulinemia, hyperglycemia, decreased insulin sensitivity, and impaired glucose disposal.

[3] = Established insulin resistance in ob/ob mice; type: in vivo; details: s.c. 0.5 or 2.5 mg/kg twice per day for two weeks, vs vehicle control
Procedure: The effects of the MLK inhibitor CEP-1347 to alleviate established insulin resistance in mice is determined. Ten-week old ob/ob mice (Jackson Laboratory, Bar Harbor, Me.) are obese and display hyperinsulinemia, hyperglycemia, decreased insulin sensitivity, and impaired glucose disposal. Such mice are administered CEP-1347 subcutaneously (s.c.) at a dose of 0.5 or 2.5 mg/kg or vehicle control, twice per day for two weeks. Blood glucose concentrations are measured with a DEX® glucometer (Bayer, Tarrytown, N.Y.), and plasma insulin is measured by ELISA kit for rat insulin (Crystal Chem, Downers Grove, Ill.). Following day 14 of the treatment, glucose tolerance tests are performed by i.p. administration of glucose (1.8 g/kg) and measurement of blood glucose at t=15, 30, 60, 90, and 120 minutes. Insulin tolerance tests are performed similarly except with the injection of human insulin (1 unit per kg; Lilly Research Laboratories, Indianapolis).

SMILES: CCCCCCCCCCCCCCCCCC(=O)O [stearate, stearic acid]
- JNK activation (JNK; MEF, 0.5 mM FFA, 16 hours): resulted in JNK activation

SMILES: CCCCCCCCCCCCCC(=O)O[C@@H]1[C@@H](C)[C@@]2(O)[C@@H](C=C(CO)C[C@]3(O)C(=O)C(C)=C[C@@H]23)[C@@H]2C(C)(C)[C@]12OC(C)=O [TPA, Phorbol-12-Myristate-13-Acetate]
- effect on FFA-induced JNK activation (JNK; MEF pretreated with phorbol ester, then FFA): did not affect
- effect on FFA-induced MLK3 activation (MLK3): did not affect
- down-regulation of PKC isoforms [1]: caused down-regulation of diacylglycerol-responsive PKC isoforms (α, δ, and ε)

SMILES: CCSCc1ccc2c(c1)c1c3c(c4c5cc(CSCC)ccc5n5c4c1n2[C@H]1C[C@](O)(C(=O)OC)[C@]5(C)O1)CNC3=O [CEP-1347]
- hyperinsulinemia, hyperglycemia, decreased insulin sensitivity, impaired glucose disposal [2]: decreases these symptoms
- hyperinsulinemia and hyperglycemia [3]: decreases hyperinsulinemia and hyperglycemia
- insulin and glucose tolerance [3]: at least partially restores insulin and glucose tolerance
